Assay results taken from a melting point compilation (Tetko et al.; mined from patent text by program, amines drawn as free bases though some values may be those of a salt).

| Structure (SMILES) | melting point |
| --- | --- |
| CCCN(CCC)C(=O)CNc1nc(-c2ccccc2)nc(CC)c1C | 83 to 84 °C |
| COc1ccc2c3c1OC(c1ccccc1)N3C(=O)C1CCCN1C2=O (centres undefined) | 157 to 160 °C |
| O=C(O)CNC(=O)Cc1ccccc1S | 91 to 93 °C |
| C[C@]1(CN2CCN(C3CCN(CC=Cc4ccc(OC(F)(F)F)cc4)CC3)CC2)Cn2cc([N+](=O)[O-])nc2O1 | 157 to 158 °C |
| CC(C)[C@H]1C(=O)OCN1C(=O)OCc1ccccc1 | 54 to 55 °C |
| O=CNCCCCCCO | 43.5 to 45 °C |
| CC(C)C1NC(=O)CN1C(=O)C(Cl)Cl (centres undefined) | 172 to 173 °C |
| Cc1cnc(OCC2CN(C(C)(C)C)C(c3ccccc3)O2)c2cc(Cl)ccc12 (centres undefined) | 90 to 92 °C |
| NC(=NO)C1CCN(C(=O)OCc2ccccc2)CC1 | 111 to 113 °C |
| CC(C)(O)C#Cc1c(F)c(F)c(-c2c(F)c(F)c(C#CC(C)(C)O)c(F)c2F)c(F)c1F | 119 to 121 °C |
| O=C(NC1CCCCCCC1)NC1CCCCC1 | 194 °C |
| COc1ccc(S(=O)(=O)C2(CCCC#Cc3ccc(C(=O)O)cc3C)SC(=O)NC2=O)cc1 (centres undefined) | 182 to 184 °C |
| O=C(O)CC1(CCCCCCCCCCC2(C(=O)O)CC2)CC1 | 71.9 to 74.3 °C |
| O=C1c2ccccc2-c2c1c1ccccc1c(=O)n2CCCCCCCCCCCNS(=O)(=O)c1ccccc1 | 170 to 172 °C |
| COc1cc(OC)c2c(c1)C(C)(C)C(c1ccc(OC)c(OC)c1)C(C)C(=O)O2 (centres undefined) | 163 to 165 °C |
| CON=C(Cl)c1ccccc1S(=O)(=O)NC(=O)Nc1nc(C)cc(OC)n1 | 178 to 179 °C |
| O=C1C=C(NC(=O)C(=O)c2cn(Cc3cccc(Cl)c3F)c3ccccc23)CO1 | 248 to 250 °C |
| CCN(CC)CC(C)COc1ccc2nc(-c3cccc(OC)c3)n(CC(=O)NC(C)C)c(=O)c2c1 (centres undefined) | 161 to 163 °C |
| CCOC(=O)[C@@H](CNC(=O)c1ccccc1)[C@H](O)C(F)(F)F | 108 to 110 °C |
| CSC(=C(C#N)C#N)N1CCc2ccccc2CC1 | 129 to 132 °C |
| CN=C(NS(=O)(=O)N1CCC(F)(F)CC1)N1CC(c2ccccc2)C(c2ccc(Cl)cc2)=N1 (centres undefined) | 158 to 160 °C |
| COc1cc2c(c(Cl)c1Cl)C(=O)C(C)(C(C)C)C2 (centres undefined) | 143 °C |
| CC1(C)CCC(C)(C)c2cc(-c3cc(-c4ccc(C(=O)O)cc4)ccc3-c3ccccc3O)ccc21 | 161 to 163 °C |
| O=C(NO)c1ccc(N2CCCC2)cn1 | 220 to 225 °C |
| C#CCCCC1(S(=O)(=O)c2ccc(C)cc2)SC(=O)NC1=O (centres undefined) | 226 °C |
| O=C(NCCCOc1cccc(CN2CCCCC2)c1)Nc1ccc2c(c1)OCO2 | 128 to 130 °C |
| CC(C)(C)c1ccc(-c2nn(-c3ccc(F)cc3F)c3c2C2CCC3C2)cc1 (centres undefined) | 130 to 132 °C |
| O=C(O)CCSC(SCCC(=O)O)c1cccc(OCc2ccc3ccccc3n2)c1 | 150 to 152 °C |

| Structure (SMILES) | melting point |
| --- | --- |
| C=CCc1c(OCC(O)CSCCO)ccc(C(C)=O)c1O (centres undefined) | 54 to 56 °C |
| COc1ccc2[nH]cc(C3=CCN(C)CC3)c2n1 | 203 °C |
| NP(N)(=O)NC(=O)c1cccs1 | 272 to 280 °C |
| Cc1nc(NCc2ccccn2)n(C)c(=O)c1CCO | 245 °C |
| Cc1cn(S(C)(=O)=O)c2c1C(=O)CC(c1ccccc1)C2 (centres undefined) | 80 to 83 °C |
| CCCCN1C(=O)c2cncnc2N(C(=O)CN2CCN(C)CC2)c2ccccc21 | 153 to 154 °C |
| CC(C)=CCN1Cc2cc(Cl)c(Cl)c3[nH]c(=S)n(c23)C[C@@H]1C | 173 °C |
| CC(C)S(=O)(=O)c1cc(O)c(N)c(C#N)c1 | 166 to 167 °C |
| COc1cc(C(O)CS(C)(=O)=O)cc(OC)c1N(C)C(C)=O (centres undefined) | 175 to 177 °C |
| COc1ccc([C@H]2C=CN(S(=O)(=O)c3ccc(OC)cc3)C(=O)[C@H]2CCC2C=CC=CC2=O)cc1 (some centres undefined) | 159 to 161 °C |
| CC(=O)Nc1ccccc1C1OC(=O)NC1=O (centres undefined) | 197 to 198 °C |
| C=CCON=C(C(=O)OCC)c1csc(N)n1 | 102 to 104 °C |
| CC1CCC(C(C)C)C(OC(=O)N2CC3CC(C2)CN(C(=O)C2(O)NCCC2Oc2ccc(C#N)cc2)C3)C1 (single isomer, unassigned; (-)) | 111 to 112 °C |
| COc1ccc(C(=O)Nc2c(Cl)cc(NC(C)=O)cc2Cl)cc1OC1CCCC1 | 250 to 252 °C |
| Clc1nc[nH]c2ncc(I)c1-2 | 195 to 196 °C |
| Cc1ccc2cc(NC(=O)c3cccc(SCc4cc(Nc5ccccc5)n[nH]4)c3)ccc2n1 | 172 to 174 °C |
| COc1ccc(S(=O)(=O)C(C)(Cc2ccc(OCCCN3CCC(c4cccc(Cl)c4)CC3)cc2)C(=O)NO)cc1 (centres undefined) | 122 °C |
| Clc1ccc([C@@]2(Cn3ccnc3)OC[C@H](COc3ccc4c(c3)CCNC4)O2)c(Cl)c1 (racemic) | 143 to 145 °C |
| Cc1cccc2cc3c(=O)n(CCOC(=O)NCCN(C)C)cc(C(=O)NCCN(C)C)c3nc12 | 75 to 76 °C |
| Cc1[nH]c(C=O)c(C)c1CCCCO | 99 °C |
| Cc1nnc2ccc(-c3cccs3)nn12 | 152 to 153 °C |
| CCOCCCNC(=O)Nc1ccccc1CCc1cc(C(C)(C)C)c(O)c(C(C)(C)C)c1 | 136 to 137 °C |
| N#Cc1cccc2c3c([nH]c12)CCNC3 | 230 to 235 °C |
| COc1cc2c(O)c(C(=O)O)cnc2cc1F | 275 °C |
| CCOC(=O)CCCNC(=O)c1ccc2c(c1)C=CC(C)(C)O2 | 88 to 89 °C |
| CN1CCN(CC/C=C/c2ccc3c(Nc4ccc(Sc5nccn5C)c(Cl)c4)c(C#N)cnc3c2)CC1 | 225 to 235 °C |
| Brc1ccsc1Cc1c[nH]cn1 | 212 to 214 °C |

Further lines, results first:

| melting point | Structure (SMILES) |
| --- | --- |
| 109 to 111 °C | CC(C)(C)OC(=O)Nc1cc(Cl)c(-c2ccccc2)cc1N |
| 93 °C | FC(F)Oc1ccc(C2=NNCC2n2cc(Cl)cn2)cc1 (centres undefined) |
| 188 to 192 °C | CC(COc1ccc(CC(=O)O)cc1Cl)NCC(O)c1cccc(Cl)c1 (centres undefined) |
| 93.5 to 96.8 °C | Cc1[nH]c(C(N)=O)c(C)c1-c1ccnc(Nc2ccc(F)cc2)n1 |
| 147 to 149 °C | NS(=O)(=O)c1ccc(-c2cccn2-c2ccc(Cl)cc2Cl)cc1 |
| 210 to 211 °C | Nc1nc(N)c(-c2ccc(Cl)cc2Cl)c(CF)n1 |
| 252 to 254 °C | Cc1c(-c2ccc(O)c(F)c2)sc(C=O)c1-c1ccc(O)c(Cl)c1 |
| 238 to 239 °C | Cc1oc(-c2ccccc2)nc1C(O)COc1ccc(CC2SC(=N)NC2=O)cc1 (centres undefined) |
| 271 °C | COc1cc(N)c(Cl)cc1C(=O)NC1CCN(CCn2c(=O)[nH]c3ccccc3c2=O)CC1OC (centres undefined) |
| 118 to 119 °C | CCOC(=O)C1=C(C)NC(C)=C(C(=O)OCC)C1c1ccc(F)c(Br)c1 |
| 191 to 194 °C | NS(=O)(=O)c1ccc(-n2nc(C(F)F)cc2-c2cnccn2)cc1 |
| 158 to 159 °C | Cc1cc(-c2oncc2CCC(=O)O)ccc1Cl |
| 191 to 200 °C | Cc1nc(N2N=C(c3ccc([N+](=O)[O-])cc3)c3cc4c(cc3CC2C)OCO4)no1 (centres undefined) |
| 223 to 225 °C | C[C@]12CCC(=O)N[C@@H]1CCc1cc(Sc3ccccn3)ccc12 |
| 145 to 147 °C | CC1(C)COc2cc3c(cc21)C1(CO3)CN(Cc2ccccn2)c2ccccc21 (centres undefined) |
| 242 °C | Cc1cc(-c2ccc(C(F)(F)F)c(C)c2)nc(-c2cccc(-c3ccc(S(N)(=O)=O)s3)c2)n1 |
| 178 °C | O=c1[nH]nccc1-c1ccccc1OC(F)(F)C(F)F |
| 95 to 96 °C | CCOC(=O)c1c(C(F)(F)F)nn(-c2c(Cl)cc(Cl)cc2Cl)c1C |
| 217 to 218 °C | Cc1c2ccccc2nc2ccc3nc4ccccc4c(C)c3c12 |
| 186 °C | CCOC(=O)c1[nH]cc2c1NC1=C(C(=O)CCC1)C2c1ccc(Sc2nc3c(F)c(F)c(F)cc3[nH]2)o1 (centres undefined) |
| 240 °C | CCOC(=O)c1c(N2CCN(C=O)CC2)c2cc(C)ccc2n(-c2ccccc2)c1=O |
| 151 °C | CC(C)c1nccc2c(CNC(=O)C(Cl)Cl)cccc12 |

| melting point | Structure (SMILES) |
| --- | --- |
| 159 to 160 °C | NC(=O)CNC(=O)c1ccc(F)c(-c2cccc3cc(Cc4cc(F)cc(Cl)c4)sc23)c1 |
| 84 to 85 °C | CN(CCc1c[nH]c2ccc(CN)cc12)Cc1ccccc1 |
| 279 to 283 °C | c1ccc(-c2noc(-c3cc4c(cn3)[nH]c3ccccc34)n2)cc1 |
| 140 to 141 °C | COC(=O)C(Cl)=Cc1cc(-n2ncc(C(F)(F)F)cc2=O)ccc1Cl |
| 88 to 90 °C | CC(C(=O)N(C)C)n1ccc(-c2c(Cl)cccc2Cl)n1 (centres undefined) |
| 299 to 302 °C | Cc1cc2c(cc1C)N=C(c1ccc(-n3c(C)nc4cnccc43)cc1)CC(N)=N2 |
| 100 to 102 °C | O=S(=O)(c1ccccc1)C(F)(F)C(O)c1ccc(Cl)cc1 (centres undefined) |
| 178 to 183 °C | NC(=O)Cc1ccccc1Cn1ccc(OCc2ccc(F)cc2F)c(Br)c1=O |
| 136 °C | O=Cc1cccc(Cl)n1 |
| 180 to 182 °C | Nc1cccc(-c2ccc(CCN3CCN(C(=O)NC4CCCCC4)CC3)cc2)n1 |
| 128 °C | COc1cc(CSc2ccc(O)cc2)cc(OC)c1O |
| 139 to 140 °C | O=S(=O)(Nc1ccc2c(OCc3ccc(-c4ccc(F)cc4)cc3)cccc2c1)C(F)(F)F |
| 156 to 157 °C | CN(CCOc1ccc(CC(Sc2ccc(Cl)cc2)C(=O)O)cc1)c1nc2ccccc2o1 (centres undefined) |
| 166 to 168 °C | COc1cc(CCl)ccc1OCc1nc(-c2cccc([N+](=O)[O-])c2)oc1C |
| 141 to 148 °C | CN(Cc1cc2c(=O)c(C(=O)NCc3ccc(Cl)cc3)cn(C)c2o1)CC(CO)c1ccccc1 (centres undefined) |
| 152 to 153 °C | CC(C)(C)c1cc(C(C)(C)C)n(Cc2ccc(COc3ccc(CCC(=O)O)c(F)c3)cc2)n1 |
| 109 to 111 °C | Nc1c(F)c(Cc2ccc(F)cc2)nc(C=O)c1Cl |
| 62 to 63 °C | COc1cccc2c1C(OC)(OC)C=CC2=O |
| 268 to 269 °C | Cc1ccc(Nc2nnc(-c3ccc(N4CCOCC4)c([N+](=O)[O-])c3)s2)cc1Cl |
| 230 to 235 °C | COc1ccc(Cn2cc(C(=O)O)c(=O)c3ccc(N4CCNCC4)cc32)cc1 |
| 100 to 102 °C | CCNC(=O)n1nc(Oc2c(Cl)cc(C(F)(F)F)cc2Cl)cc1CC(=O)OCC |
| 99 to 102 °C | Cc1ccccc1C[C@H](C(=O)Nc1nc2ccccc2o1)c1ccc(S(C)(=O)=O)cc1 |
